Measurements from patent US5534495A, “Treatment of non-HIV neuropathic pain syndromes” (Advanced Peptides and Biotechnology Sciences, priority 1995, dated 1996).

How the values were obtained:
[1] = system: dissociated hippocampal and/or cortical neurons; assay: Neuronal survival assay in vitro (5-day exposure); assay type: cell-based, rat
Description: (§1) The neuroprotective and neurotropic actions of the herein defined peptides were determined by their effects upon fetal rodent neuronal cultures. […] The dissociated cells were be plated at low density (50,000 cells/35-mm dish) upon confluent layers of astrocytes. The astrocyte feeder layers were prepared from the hippocampi and/or cortices of 2-day-old rat pups. Following treatment with 0,125% trypsin for 15 min, the tissue was triturated and plated at 2.5×10^5 cells into 35-mm tissue culture dishes coated with Vintrogen (Collagen, Palo Alto) and poly-L-lysine (M1 30-70K 10^-5 M borate, pH 8.4, Sigma). The resulting feeder layers were grown in Eagle's minimal essential medium (MEM, formula 82-0234, Gibco) with 10% fetal bovine serum until confluent (12-14 days); feeder layers prepared in this way were devoid of neurons and consisted predominantly of flat cells that were stained by antibodies to glia fibrillary acidic protein. When hippocampal and/or cortical neurons were added to the confluent feeder cultures, the medium was changed to 94% MEM, 5% horse serum (Gibco) and an added nutrient supplement containing insulin, transferrin, putrescine, selenium, corticosterone, progesterone and triiodothyronine. The resulting mixed neuron/glia cultures are treated one day after plating with 5'-fluoro-2'-deoxyuridine (15 μg/ml plus uridine, 35Mg/ml) to suppress the overgrowth of background cells. The neuronal cultures were allowed to grow for one week prior to the beginning of the experimental period and the medium was changed prior to adding peptides or controls.
The test period of exposure to peptides was five days long, a period in which cell survivability can be accurately quantitated. […] Neurons were counted in 100 fields at predetermined stage coordinates. Cultures were coded and counted in a blinded fashion without knowledge of sample treatment. The total area counted was 50 mm^2. […] The maximum effect was detected at 0.1 nM, with approximately a 25% increase in cell survival compared to vehicle (Control) treated cultures.

[2] = system: hippocampal neuronal cells; assay: Twenty one day survival of hippocampal neuronal cell cultures; assay type: cell-based, rat; settings: 0.1 nM
Description: as §1, with “The resulting mixed neuron/glia cultures are treated one day after plating with 5'-fluoro-2'-deoxyuridine (15 μg/ml plus uridine, 35Mg/ml) to suppress the overgrowth of background cells. The neuronal cultures were allowed to grow for one week prior to the beginning of the experimental period and the medium was changed prior to adding peptides or controls.” left out

## C[C@@H](N)C(=O)N[C@@H](CO)C(=O)N[C@H](C(=O)N[C@H](C(=O)N[C@H](C(=O)N[C@@H](CC(N)=O)C(=O)N[C@@H](Cc1ccc(O)cc1)C(=O)N[C@H](C(N)=O)[C@@H](C)O)[C@@H](C)O)[C@@H](C)O)[C@@H](C)O [DAPTA]
[1]; 7-day-old neuronal cultures, five days exposure, vs vehicle control, FIG. 1
  effect on neuronal survival (neuronal cell count as percentage of Control): caused an increase in neuronal survival
[1]; at 0.1 nM (maximum effect), five days
  increase in cell survival compared to vehicle (Control) treated cultures: ~25%
[1]; five days exposure, FIG. 1
  concentration of maximum effect on neuronal survival: 0.1 nM
[2]; after twenty one days, FIG. 2
  increase in cell survival compared to vehicle treated cultures: 4 fold
[2]; at all times during the twenty one day test period, vs vehicle
  cell survival rate over the test period: enhanced
